Test results taken from patent US8227613B2, “Heteroaryl carboxamide derivatives” (Hoffmann-La Roche Inc., priority 2008, dated 2012).

Each compound was assayed against T1, human chemokine receptor 2 isoform B (CCR2B) (Homo sapiens, UniProt P41597) (assay: Calcium mobilization assay (FLIPR, MCP-1 stimulated CHOK1-CCR2B-A5 cells)). Settings: 20 nM MCP-1, antagonist activity, read-out: IC50 (inhibitor concentration required for 50% inhibition of specific calcium increases).
T1 construct: host or cells: CHO-K1 (CHOK1-CCR2B-A5)
T1 sequence (P41597 1-360 isoform P41597-2): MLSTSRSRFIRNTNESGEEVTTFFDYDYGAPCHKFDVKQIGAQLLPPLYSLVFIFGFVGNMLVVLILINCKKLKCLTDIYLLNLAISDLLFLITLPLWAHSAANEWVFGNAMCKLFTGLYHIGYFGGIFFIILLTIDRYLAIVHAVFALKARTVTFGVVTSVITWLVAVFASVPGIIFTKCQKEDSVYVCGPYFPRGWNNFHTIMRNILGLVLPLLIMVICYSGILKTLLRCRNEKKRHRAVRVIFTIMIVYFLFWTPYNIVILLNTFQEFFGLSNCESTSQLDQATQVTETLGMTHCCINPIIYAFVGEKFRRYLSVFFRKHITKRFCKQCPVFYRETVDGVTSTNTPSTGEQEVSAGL
Assay type: cell-based
Description: Calcium Mobilization Assay
CHOK1-CCR2B-A5 cells (from Euroscreen) stably overexpressing the human chemokine receptor 2 isoform B were cultured in Nutrient Hams F12 medium supplemented with 5% FBS, 100 U/ml penicillin, 100 μg/ml streptomycin, 400 μg/ml G418 and 5 μg/ml puromycin.
For the assay cells were grown overnight in 384-well black clear flat bottom polystyrene plates (Costar) at 37° C. at 5% CO2. After washing with DMEM, 20 mM Hepes, 2.5 mM probenecid, 0.1% BSA (DMEM assay buffer) cells were loaded with 4 μM Fluo-4 in the same DMEM assay buffer for 2 hours at 30° C. Excess dye was removed and cells were washed with DMEM assay buffer. 384-well compound plates were prepared with DMEM assay buffer/0.5% DMSO with or without various concentrations of test compounds. Usually compounds were tested for agonist and antagonist activity.
Test compounds were added to the assay plate and agonist activity was monitored as fluorescence for 80 seconds with a FLIPR (488 nm excitation; 510-570 nm emission; Molecular Devices). After 20-30 min. of incubation at 30° C., 20 nM MCP-1 (R&D; Roche) was added and fluorescence was monitored again for 80 seconds. Increases in intracellular calcium are reported as maximum fluorescence after agonist exposure minus basal fluorescence before exposure. Antagonist activity is indicated as inhibitor concentration required for 50% inhibition of specific calcium increases.

Row | SMILES | IC50 [µM]
1 | CC(=O)Nc1nc(C(=O)N2CCC(N3CCCC3)CC2)c(C)cc1-c1cccc(C(F)(F)F)c1 [Example 11, N-[5-Methyl-6-(4-pyrrolidin-1-yl-piperidine-1-carbonyl)-3-(3-trifluoromethyl-phenyl)-pyridin-2-yl]-acetamide] | 0.071
2 | Cc1cc(-c2cccc(C(F)(F)F)c2)c(C(=O)N2CCN(C(=O)OC(C)(C)C)CC2)nc1C(=O)N1CCC(N2CCCC2)CC1 [Example 59, 4-[5-Methyl-6-(4-pyrrolidin-1-yl-piperidine-1-carbonyl)-3-(3-trifluoromethyl-phenyl)-pyridine-2-carbonyl]-piperazine-1-carboxylic acid tert-butyl ester] | 0.49
3 | Cc1cc(-c2cccc(C(F)(F)F)c2)c(C(=O)NCCO)nc1C(=O)N1CCC(N2CCCC2)CC1 [Example 55, 5-Methyl-6-(4-pyrrolidin-1-yl-piperidine-1-carbonyl)-3-(3-trifluoromethyl-phenyl)-pyridine-2-carboxylic acid (2-hydroxy-ethyl)-amide] | 0.13

Further lines, results first:

Row | IC50 [µM] | SMILES
4 | 0.0039 | Cc1cc(-c2cccc(C(F)(F)F)c2)c(-c2ccc(N)nc2)nc1C(=O)N1CCC(N2CCCC2)CC1 [Example 40, [6′-Amino-5-methyl-3-(3-trifluoromethyl-phenyl)-[2,3′]bipyridinyl-6-yl]-(4-pyrrolidin-1-yl-piperidin-1-yl)-methanone]
5 | 0.015 | Cc1cc(-c2cccc(C(F)(F)F)c2)c(-c2ccnn2C)nc1C(=O)N1CCC(N2CCCC2)CC1 [Example 53, [3-Methyl-6-(2-methyl-2H-pyrazol-3-yl)-5-(3-trifluoromethyl-phenyl)-pyridin-2-yl]-(4-pyrrolidin-1-yl-piperidin-1-yl)-methanone]
6 | 0.12 | Cc1cc(-c2cccc(C(F)(F)F)c2)c(-c2cnc(O)nc2O)nc1C(=O)N1CCC(N2CCCC2)CC1 [Example 54, [6-(2,4-Dihydroxy-pyrimidin-5-yl)-3-methyl-5-(3-trifluoromethyl-phenyl)-pyridin-2-yl]-(4-pyrrolidin-1-yl-piperidin-1-yl)-methanone]
7 | 0.0058 | Cc1cc(-c2cccc(C(F)(F)F)c2)c(-c2cnc(N)nc2)nc1C(=O)N1CCC(N2CCCC2)CC1 [Example 39, [6-(2-Amino-pyrimidin-5-yl)-3-methyl-5-(3-trifluoromethyl-phenyl)-pyridin-2-yl]-(4-pyrrolidin-1-yl-piperidin-1-yl)-methanone]
